Measurements reported in US7112607B2, “Allosteric adenosine receptor modulators” (King Pharmaceuticals Research & Development, Inc., priority 1997, dated 2006).

Target: T1, human recombinant A1 adenosine receptors (Homo sapiens, UniProt P30542)
T1 construct: expressed in transfected cells; host or cells: Chinese hamster ovary (CHO) cells, CHO:huA1, G-418 selected
T1 sequence (P30542 1-326): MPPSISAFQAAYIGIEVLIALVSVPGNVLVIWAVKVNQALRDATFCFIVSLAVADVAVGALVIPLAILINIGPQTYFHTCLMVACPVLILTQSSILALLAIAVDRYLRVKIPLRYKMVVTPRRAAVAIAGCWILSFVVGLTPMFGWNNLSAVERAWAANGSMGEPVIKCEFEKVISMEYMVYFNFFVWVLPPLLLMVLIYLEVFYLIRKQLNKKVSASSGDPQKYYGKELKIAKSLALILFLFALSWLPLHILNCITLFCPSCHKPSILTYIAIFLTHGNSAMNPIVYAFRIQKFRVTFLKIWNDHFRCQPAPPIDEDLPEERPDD
Experiment: Allosteric enhancement: reduction of cAMP content of CHO:huA1 cells (radioimmunoassay)
Type: cell-based
Details: forskolin 1 μM, rolipram 20 μM, CPA 0.01 nM, adenosine deaminase, 6 min at 36° C.; for inhibition at 0.01 µM / inhibition at 0.1 µM / inhibition at 1 µM / inhibition at 10 µM: 0.1 h, read-out: Change in cAMP Content from Control (mean + SEM)
Experimental: Chinese hamster ovary cells expressing human recombinant A1 adenosine receptors (CHO:huA1 cells) at a density of approximately 8000 fmol/mg protein were prepared as previously described (Kollias-Baker et al., (1997), J. Pharmacol. Exp. Ther. 281: 761–768) and aliquots of the cells at low passage numbers were frozen and stored in liquid nitrogen. When compounds were tested, an aliquot of CHO:huA1 cells were rapidly thawed after removal from liquid nitrogen, then grown in Ham's F12 culture medium with 10% fetal bovine serum and 0.5 mg/mL of antibiotic G-418 (Shryock, Ozeck, and Belardinelli (1998), Mol. Pharmacol 53: 886–893). Cells were passaged thrice weekly. Aliquots of cells were placed into 12-well plates with culture medium, serum, and antibiotic for 48 hours, by which time the cells had grown to a confluent monolayer.
Allosteric enhancement was measured as the action of a test compound at different concentrations (0.01, 0.1, 1 and 10 μM) to reduce the cAMP content of CHO:huA1 cells. To initiate an experiment, growth medium was removed from the 12-well plates and cells were washed once with warm Hanks' buffered saline. The wash solution was then removed and replaced with fresh Hanks' solution containing forskolin (1 μM), rolipram (20 μM), N^6-cyclopentyladenosine (CPA, 0.01 nM), adenosine deaminase (2 U/mL), and the test compound. Forskolin was used to stimulate the activity of adenylyl cyclase, rolipram to inhibit cAMP phosphodiesterase, adenosine deaminase to degrade endogenous adenosine, and CPA to cause a small increase of the number of activated adenosine receptors. After 6 min of incubation at 36° C. in the presence of test compound, the incubation solution was removed and hydrochloric acid (final concentration 50 mM) was added to terminate drug action.
The content of cAMP in acidified extracts of cells was determined by radioimmunoassay as previously described (Kollias-Baker et al., (1997), J. Pharmacol. Exp. Ther. 281: 761–768). Because the magnitude of the effects of allosteric enhancers on CHO:huA1 cells changed subtly with passage number and differed slightly among different aliquots of cells, the actions of the test compounds and the action of a reference compound (PD 81,723) were assessed in each experiment. The effect of each test compound on cAMP content is presented in Table 1 as a percentage of the value of cAMP content in the absence of drug (control, 100%). Each value is a mean±standard error of 6 determinations in each of the number of experiments indicated in the “n” column of the table.

Row | Structure (SMILES) | inhibition at 0.01 µM (0.01 μM test compound) | inhibition at 0.1 µM (0.1 μM test compound) | inhibition at 1 µM (1 μM test compound) | inhibition at 10 µM (10 μM test compound) | Change in cAMP Content from Control (mean + SEM) (0.01 μM test compound) | Change in cAMP Content from Control (mean + SEM) (0.1 μM test compound) | Change in cAMP Content from Control (mean + SEM) (1 μM test compound) | Change in cAMP Content from Control (mean + SEM) (10 μM test compound)
1 | Nc1sc2c(c1C(=O)c1ccccc1)CCSC2 [Example 1, (2-Amino-4,7-dihydro-5H-thieno[2,3-c]thiopyran-3-yl)-phenyl-methanone] | -9 ± 4% | 6 ± 3% | 15 ± 2% | 35 ± 2% |  |  |  | 
2 | Nc1sc2c(c1C(=O)c1ccc(Cl)cc1)CCSC2 [Example 2, (2-Amino-4,7-dihydro-5H-thieno[2,3-c]thiopyran-3-yl)-(4-chlorophenyl)-methanone] | -15 ± 3% | 10 ± 4% | -16 ± 5% | 0.3 ± 5% |  |  |  | 
3 | Nc1sc2c(c1C(=O)c1ccc(Cl)cc1)CCS2 [Example 3, (2-Amino-4,5-dihydrothieno[2,3-b]thiophen-3-yl)-(4-chlorophenyl)-methanone] | 1 ± 4% | -11 ± 4% | -1 ± 3% | 35 ± 4% |  |  |  | 
4 | Nc1sc2c(c1C(=O)c1ccco1)CCCC2 [Example 4, (2-Amino-4,5,6,7-tetrahydrobenzo[b]thiophen-3-yl)-furan-2-yl-methanone] | 10 ± 2% | -2 ± 6% | 3 ± 6% | 10 ± 7% |  |  |  | 
5 | Nc1sc2c(c1C(=O)c1cccs1)CCCC2 [Example 5] |  |  |  |  | −11 ± 3% | −11 ± 5% | −16 ± 3% | −40 ± 2%
6 | Nc1sc2c(c1C(=O)c1cccc3ccccc13)CCCC2 [Example 6, (2-Amino-4,5,6,7-tetrahydrobenzo[b]thiophen-3-yl)-naphthalen-1-yl-methanone] | 11 ± 4% | 15 ± 4% | 22 ± 3% | 52 ± 3% |  |  |  | 
7 | Nc1sc2c(c1C(=O)c1cccc3ccccc13)CCC2 [Example 7, (2-Amino-5,6-dihydro-4H-cyclopenta[b]thiophen-3-yl)-naphthalen-1-yl-methanone] | 0.6 ± 3% | 6 ± 1% | 29 ± 4% | 60 ± 1% |  |  |  | 
8 | Cc1sc(N)c(C(=O)c2cccc3ccccc23)c1C [Example 8, (2-Amino-4,5-dimethylthiophen-3-yl)-naphthalen-1-yl-methanone] | 0.6 ± 2% | 3 ± 3% | -6 ± 5% | 45 ± 2% |  |  |  | 
9 | Nc1sc2c(c1C(=O)c1cccc3ccccc13)CCN(Cc1ccccc1)C2 [Example 9, (2-Amino-6-benzyl-4,5,6,7-tetrahydrothieno[2,3-c]pyridin-3-yl)-naphthalen-1-yl-methanone] | 21 ± 3% | 7 ± 4% | 25 ± 4% | -19 ± 2% |  |  |  | 
10 | CC(=O)Nc1sc2c(c1C(=O)c1ccco1)CCCC2 [Example 10, N-[3-(Furan-2-carbonyl)-4,5,6,7-tetrahydrobenzo[b]thiophen-2-yl]-acetamide] | 8 ± 5% | 14 ± 4% | 25 ± 5% | -8 ± 5% |  |  |  | 
11 | Nc1sc2c(c1C(=O)c1ccco1)CCC2 [Example 11, (2-Amino-5,6-dihydro-4H-cyclopenta[b]thiophen-3-yl)-furan-2-yl-methanone] | -3 ± 4% | 14 ± 4% | 0.8 ± 3% | 23 ± 2% |  |  |  | 
12 | Nc1sc2c(c1C(=O)c1ccco1)CCN(Cc1ccccc1)C2 [Example 12, (2-Amino-6-benzyl-4,5,6,7-tetrahydrothieno[2,3-c]pyridin-3-yl)-furan-2-yl-methanone] | 27 ± 4% | 0.6 ± 4% | 15 ± 3% | 8 ± 11% |  |  |  | 
13 | Cc1sc(N)c(C(=O)c2ccco2)c1C [Example 13, (2-Amino-4,5-dimethylthiophen-3-yl)-furan-2-yl-methanone] | 4 ± 5% | -11 ± 5% | 7 ± 5% | -5 ± 10% |  |  |  | 
14 | Nc1sc2c(c1C(=O)c1cc3ccccc3o1)CCCC2 [Example 14, (2-Amino-4,5,6,7-tetrahydrobenzo[b]thiophen-3-yl)-benzofuran-2-yl-methanone] | 13 ± 5% | 3 ± 4% | 4 ± 3% | 5 ± 4% |  |  |  | 
15 | Nc1sc2c(c1C(=O)c1cc3ccccc3o1)CCC2 [Example 15, (2-Amino-5,6-dihydro-4H-cyclopenta[b]thiophen-3-yl)-benzofuran-2-yl-methanone] | 5 ± 3% | 13 ± 3% | -3 ± 5% | 4 ± 6% |  |  |  | 
16 | Nc1sc2c(c1C(=O)c1cc3ccccc3o1)CCN(Cc1ccccc1)C2 [Example 16, (2-Amino-6-benzyl-4,5,6,7-tetrahydrothieno[2,3-c]pyridin-3-yl)-benzofuran-2-yl-methanone] | -4 ± 3% | -14 ± 4% | 10 ± 2% | -11 ± 4% |  |  |  | 
17 | Nc1sc2c(c1C(=O)c1ccccn1)CCC2 [Example 17] |  |  |  |  | −3 ± 4% | 0.8 ± 7% | −1 ± 6% | 2 ± 7%
18 | Cc1sc(N)c(C(=O)c2cc3ccccc3o2)c1C [Example 18, (2-Amino-4,5-dimethylthiophen-3-yl)-benzofuran-2-yl-methanone] | -6 ± 5% | 7 ± 4% | -16 ± 5% | -7 ± 6% |  |  |  | 
19 | Nc1sc2c(c1C(=O)c1ccccn1)CCCC2 [Example 19, (2-Amino-4,5,6,7-tetrahydrobenzo[b]thiophen-3-yl)-pyridin-2-yl-methanone] | 2 ± 4% | 8 ± 5% | 11 ± 5% | -8 ± 3% |  |  |  | 
20 | Nc1sc2c(c1C(=O)c1ccccn1)CCN(Cc1ccccc1)C2 [Example 20, (2-Amino-6-benzyl-4,5,6,7-tetrahydrothieno[2,3-c]pyridin-3-yl)-pyridin-2-yl-methanone] | -2 ± 4% | -7 ± 5% | -0.1 ± 5% | -31 ± 3% |  |  |  | 
21 | Cc1sc(N)c(C(=O)c2ccccn2)c1C [Example 21, (2-Amino-4,5-dimethylthiophen-3-yl)-pyridin-2-yl-methanone] | -0.7 ± 3% | 8 ± 3% | -4 ± 4% | -14 ± 4% |  |  |  | 
22 | Nc1sc2c(c1C(=O)c1ccc(Br)c3ccccc13)CCC2 [Example 22, (2-Amino-5,6-dihydro-4H-cyclopenta[b]thiophen-3-yl)-(4-bromonaphthalen-1-yl)-methanone] | -3 ± 3% | -19 ± 5% | 14 ± 5% | 67 ± 3% |  |  |  | 
23 | COc1ccc(C(=O)c2c(N)sc3c2CCC3)c2ccccc12 [Example 23] |  |  |  |  | −6 ± 3% | −3 ± 4% | −8 ± 4% | −35 ± 3%
